Measurements: the supplement of paper PMC10307832

Columns and labels:
Assay in all cases: relative viability (nuclei count vs DMSO), 5 days (fraction); higher = more cells survive
R406 + Bortezomib = compound: COc1cc(Nc2ncc(F)c(Nc3ccc4c(n3)NC(=O)C(C)(C)O4)n2)cc(OC)c1OC [R406] + CC(C)C[C@H](NC(=O)[C@H](Cc1ccccc1)NC(=O)c1cnccn1)B(O)O [Bortezomib] (partner 0.002 µM)
Summary of the method: (§1)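 A single step with final 0.05% Triton X-100, 1% formaldehyde and 1 ug/ml Hoechst fixed the cells and stained nuclei 5 days after treatment. Lung cancer cell lines in 1536-well plates had been treated by pin tool the day after seeding with one drug alone or a fixed anchor-drug dose plus five library-drug doses (not always all listed) in √10 steps, and nuclei were counted on 4× images. Relative viability is the ratio of nuclei in treated wells to nuclei in vehicle wells, taken as the median of duplicate plates.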

R406 + Crizotinib = compound: COc1cc(Nc2ncc(F)c(Nc3ccc4c(n3)NC(=O)C(C)(C)O4)n2)cc(OC)c1OC [R406] + C[C@@H](Oc1cc(-c2cnn(C3CCNCC3)c2)cnc1N)c1c(Cl)ccc(F)c1Cl [Crizotinib] (partner 1 µM)
Summary of the method: as §1

Daporinad + Bortezomib = compound: O=C(/C=C/c1cccnc1)NCCCCC1CCN(C(=O)c2ccccc2)CC1 [Daporinad] + CC(C)C[C@H](NC(=O)[C@H](Cc1ccccc1)NC(=O)c1cnccn1)B(O)O [Bortezomib] (partner 0.002 µM)
Summary of the method: as §1

Daporinad + AZD7762 = compound: O=C(/C=C/c1cccnc1)NCCCCC1CCN(C(=O)c2ccccc2)CC1 [Daporinad] + NC(=O)Nc1cc(-c2cccc(F)c2)sc1C(=O)N[C@H]1CCCNC1 [AZD7762] (partner 0.2 µM)
Summary of the method: as §1

Cell Line	relative viability (R406 + Bortezomib; first compound 0.08 µM)	relative viability (R406 + Bortezomib; first compound 0.253 µM)	relative viability (R406 + Bortezomib; first compound 0.8 µM)	relative viability (R406 + Bortezomib; first compound 2.53 µM)	relative viability (R406 + Bortezomib; first compound 8 µM)	relative viability (R406 + Crizotinib; first compound 0.08 µM)	relative viability (R406 + Crizotinib; first compound 0.253 µM)	relative viability (R406 + Crizotinib; first compound 0.8 µM)	relative viability (R406 + Crizotinib; first compound 2.53 µM)	relative viability (R406 + Crizotinib; first compound 8 µM)	relative viability (Daporinad + Bortezomib; first compound 0.0005 µM)	relative viability (Daporinad + Bortezomib; first compound 0.001581 µM)	relative viability (Daporinad + Bortezomib; first compound 0.005 µM)	relative viability (Daporinad + Bortezomib; first compound 0.01581 µM)	relative viability (Daporinad + AZD7762; first compound 0.0005 µM)	relative viability (Daporinad + AZD7762; first compound 0.001581 µM)	relative viability (Daporinad + AZD7762; first compound 0.005 µM)	relative viability (Daporinad + AZD7762; first compound 0.01581 µM)
201T	1.11	1.09	1.11	1.04	0.993	0.994	1.06	1.03	1.05	0.974	1.08	1.11	1.07	1.11	0.572	0.673	0.671	0.535
A549						0.785	0.837	0.941	0.337	0.175								
A-427	0.948	1.01	1.03	0.526	0.74	1	1.14	0.914	0.629	0.273	0.952	1.02	0.974	0.784	0.83	0.765	0.759	0.529
ABC-1	0.399	0.321	0.317	0.251	0.265	1.24	1.38	1.19	0.841	0.311	0.265	0.32	0.312	0.309	0.83	0.798	0.823	1.1
BEN	0.685	1.03	1.02	0.88	0.553	0.923	1.32	1.15	0.785	0.641	0.805	0.796	1.04	1.12	0.779	0.661	0.812	0.824
CAL-12T	0.927	1.18	1.11	0.423	0.218	0.693	0.746	0.731	0.503	0.121	0.925		0.817	0.392	0.553	0.528	0.609	0.333
COR-L23	0.942	1.14	1.06	0.907	0.523	0.612	0.797	0.733	0.708	0.383	1.01	0.973	0.753	0.212				
COR-L 105	0.68	0.84	1.06	0.315	0.246	0.955	0.89	0.822	0.8	0.263	0.827	0.815	0.781	0.753				
Calu-6	0.997	1.06	1.04	0.631	0.557	0.697	0.954	0.909	0.494	0.36	0.957	1.04	0.848	0.352				
ChaGo-K-1	1.02	1.06	1.11	0.823	0.347	1.1	0.936	1.23	1.01	0.702	0.912	0.574	0.859	0.562	0.834	0.903	0.755	0.3
EBC-1	0.606	0.616	0.672	0.44	0.231	0.155	0.231	0.153	0.209	0.166	0.546	0.506	0.558	0.623				
EKVX	1.01	1.17	1.45	0.994	0.6	0.949	0.986	1.09	0.867	0.806	0.939	1.16	1.12	1.12	0.586	0.676	0.933	0.705
EMC-BAC-2	1.04	1.13	1.12	1.04	0.844	0.747	0.855	0.796	0.738	0.262	1.22	1.04	1.06	0.301	1.09	1.28	1.02	0.413
EPLC-272H	0.813	0.983	0.984	0.51	0.495	0.798	1.07	1.09	0.533	0.49	0.86	1.04	0.98	1.14	0.19	0.271	0.268	0.297
H3255	0.852	0.912	0.686	0.865	0.457	0.82	1.13	0.873	0.761	0.77	0.642	0.806	0.865	0.888	0.869	1.04	1.03	0.972
HARA	1.07	1.21	1.15	0.991	0.389	0.902	1.06	1.13	1.09	0.376	0.979	1.12	1.15	0.345	0.232	0.522	0.299	0.16
HCC-15	1.02	1.16	1.25		0.962	0.837	1.01	0.834		0.635	0.989	1.13	1.07	1.04	1.16	1.33	1.26	1.15
HCC-44	0.927	1.07	1	0.312	0.603	0.771	0.963	0.806	0.721	0.341	0.83	0.843	0.841	0.825	1.02	0.967	0.994	1.03
HCC-78	0.491	0.541	0.51	0.306	0.241	0.356	0.318	0.398	0.302	0.269	0.367	0.502	0.345	0.642	0.6	0.626	0.53	0.796
